# From patent publication US8791098B2 (priority 2008, dated 2014)
# Molecular target: T1, preassembled microtubules (Sus scrofa, UniProt P02550+P02554)
# T1 construct: Microtubules proteins were purified from porcine brain; from tissue; host or cells: porcine brain
# Test: De-polymerization of preassembled microtubules (turbidometry)
# Type: biochemical, porcine
# Settings: drug added after about 5 min polymerization at 37° C., monitored 10 min at 350 nm
# Description: Tubulin purification: Microtubules proteins were purified from porcine brain by using standard procedures that includes three cycles of temperature-dependent polymerization and de-polymerization, as described elsewhere.
# Polymerisation assay: Tubulin polymerisation was monitored by using turbidometry assay (lit). Samples (200 μl, 10 μM tubulin) in PEM polymerisation buffer (0.1 M PIPES, pH 6.6, 1 mM EGTA, 1 mM MgSO4, and 1 mM GTP), were rapidly warmed to 37° C. in a water-jacketed cuvette holder of a diode array photometer (Beckman spectrophotometer DU 7500). Absorbance at 350 nm where monitored in the absence and the presence of the drugs.
# In order to examine the action of the drug on preassembled microtubules, microtubules proteins were firstly polymerized at 37° C. for approximately 5 min. Then the drug was added, and the stability of the microtubules was measured for further 10 min at 350 nm.
# T1 sequence (P02554 whole entry): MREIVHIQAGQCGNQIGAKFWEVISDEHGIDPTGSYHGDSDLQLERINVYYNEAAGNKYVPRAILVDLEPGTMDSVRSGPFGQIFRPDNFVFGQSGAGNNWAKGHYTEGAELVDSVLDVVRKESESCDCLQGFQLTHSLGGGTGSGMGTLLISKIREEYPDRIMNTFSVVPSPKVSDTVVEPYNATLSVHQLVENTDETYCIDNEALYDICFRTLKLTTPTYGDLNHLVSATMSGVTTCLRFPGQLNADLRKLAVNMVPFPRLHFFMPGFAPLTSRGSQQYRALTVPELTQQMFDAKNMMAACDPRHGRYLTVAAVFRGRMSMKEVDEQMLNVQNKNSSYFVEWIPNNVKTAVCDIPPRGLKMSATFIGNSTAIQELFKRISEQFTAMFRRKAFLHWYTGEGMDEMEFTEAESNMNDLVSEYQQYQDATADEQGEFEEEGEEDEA
# T1 sequence (P02550 whole entry): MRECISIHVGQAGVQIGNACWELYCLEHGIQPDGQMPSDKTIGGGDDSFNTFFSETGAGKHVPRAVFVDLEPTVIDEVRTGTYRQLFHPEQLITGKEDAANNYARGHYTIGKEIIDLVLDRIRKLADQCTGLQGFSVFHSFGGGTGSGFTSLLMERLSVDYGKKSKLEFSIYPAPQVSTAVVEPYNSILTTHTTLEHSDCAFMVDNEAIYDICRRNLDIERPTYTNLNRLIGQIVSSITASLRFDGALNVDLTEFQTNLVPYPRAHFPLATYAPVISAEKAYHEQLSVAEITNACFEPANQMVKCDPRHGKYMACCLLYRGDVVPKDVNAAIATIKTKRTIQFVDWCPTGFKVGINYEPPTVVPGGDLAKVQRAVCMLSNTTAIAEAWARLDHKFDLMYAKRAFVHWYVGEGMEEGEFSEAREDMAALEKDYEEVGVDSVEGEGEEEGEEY
structure (smiles),measurement,value
"CC[C@H](C)[C@H](NC(=O)[C@H]1CCCCN1C)C(=O)N(C)[C@H](CCc1nc(C(=O)N[C@@H](Cc2ccccc2)C[C@H](C)C(=O)O)cs1)C(C)C [pre-tubulysin-827, pretubulysin]",de-polymerization of preassembled microtubules,induced de-polymerization of microtubules at substoichiometric concentrations
